Reference: patent US8183246B2, “Acyclically substituted furopyrimidine derivatives and use thereof” (Bayer Intellectual Property GmbH, priority 2005, dated 2012)

Target: T1, Prostacyclin Receptors (IP Receptors) of Human Thrombocyte Membranes (Homo sapiens, UniProt P43119)
T1 construct: Thrombocyte membranes are obtained by centrifuging 50 ml human blood; tissue Maco Pharma, Langen (buffy coats); host or cells: human thrombocyte (platelet) membranes from human blood
Assay: Binding to prostacyclin receptors (IP receptors) of human thrombocyte membranes (3H-Iloprost displacement)
Settings: 3 nM 3H-Iloprost, 300-1000 μg/ml human thrombocyte membranes, 60 min, room temperature
Experimental: B-1. Studies of Binding to Prostacyclin Receptors (IP Receptors) of Human Thrombocyte Membranes
Thrombocyte membranes are obtained by centrifuging 50 ml human blood (Buffy coats with CDP Stabilizer, from Maco Pharma, Langen) for 20 min at 160×g. Remove the supernatant (platelet-rich plasma, PRP) and then centrifuge again at 2000×g for 10 min at room temperature. Resuspend the sediment in 50 mM tris-(hydroxymethyl)-aminomethane, which has been adjusted to a pH of 7.4 with 1 N hydrochloric acid, and store at −20° C. overnight. On the next day, centrifuge the suspension at 80000×g and 4° C. for 30 min. Discard the supernatant. Resuspend the sediment in 50 mM tris-(hydroxymethyl)-aminomethane/hydrochloric acid, 0.25 mM ethylene diamine tetraacetic acid (EDTA), pH 7.4, and then centrifuge once again at 80000×g and 4° C. for 30 min. Take up the membrane sediment in binding buffer (50 mM tris-(hydroxymethyl)-aminomethane/hydrochloric acid, 5 mM magnesium chloride, pH 7.4) and store at −70° C. until the binding test.
For the binding test, incubate 3 nM ^3H-Iloprost (592 GBq/mmol, from AmershamBioscience) for 60 min with 300-1000 μg/ml human thrombocyte membranes per charge (max. 0.2 ml) in the presence of the test substances at room temperature. After stopping, add cold binding buffer to the membranes and wash with 0.1% bovine serum albumin. After adding Ultima Gold Scintillator, quantify the radioactivity bound to the membranes using a scintillation counter. The nonspecific binding is defined as radioactivity in the presence of 1 μM Iloprost (from Cayman Chemical, Ann Arbor) and is as a rule <25% of the bound total radioactivity. The binding data (IC50 values) are determined using the program GraphPad Prism Version 3.02.

T1 sequence (P43119 whole entry): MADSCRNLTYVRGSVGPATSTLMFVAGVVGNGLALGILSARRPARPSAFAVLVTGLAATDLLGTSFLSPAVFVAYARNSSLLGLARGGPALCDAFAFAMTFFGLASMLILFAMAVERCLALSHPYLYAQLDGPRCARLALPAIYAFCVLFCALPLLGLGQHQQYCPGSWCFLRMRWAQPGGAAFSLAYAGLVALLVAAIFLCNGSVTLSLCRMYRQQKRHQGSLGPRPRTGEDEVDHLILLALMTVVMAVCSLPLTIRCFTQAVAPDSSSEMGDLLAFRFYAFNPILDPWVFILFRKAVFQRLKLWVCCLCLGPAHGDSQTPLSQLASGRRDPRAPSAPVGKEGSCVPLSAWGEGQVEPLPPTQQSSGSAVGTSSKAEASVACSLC

SMILES | IC50
COc1ccc(-c2c(-c3ccccc3)oc3ncnc(OCC(C)(C)COCC(=O)O)c23)cc1 [Example 95, (3-{[5-(4-Methoxyphenyl)-6-phenylfuro[2,3-d]pyrimidin-4-yl]oxy}-2,2-dimethylpropoxy)acetic acid] | 0.01 µM
COc1ccc(-c2c(-c3ccccc3C)oc3ncnc(NCCCCCC(=O)O)c23)cc1 [Example 122, 6-{[5-(4-Methoxyphenyl)-6-(2-methylphenyl)furo[2,3-d]pyrimidin-4-yl]amino}hexanoic acid] | 0.048 µM
CCc1ccc(-c2c(-c3ccccc3F)oc3ncnc(OC[C@H](C)COCC(=O)O)c23)cc1 [Example 154, (−)-{[(2R)-3-{[5-(4-Ethylphenyl)-6-(2-fluorophenyl)furo[2,3-d]pyrimidin-4-yl]oxy}-2-methyl-propyl]oxy}acetic acid] | 0.0038 µM
CCc1ccc(-c2c(-c3ccccc3)oc3ncnc(NCCCCCC(=O)OC)c23)cc1 [Example 36] | 0.217 µM
COc1ccc(-c2c(-c3ccccc3)oc3ncnc(OC(C)CC(C)OCC(=O)O)c23)cc1 (single isomer, unassigned; enantiomer 2) [Example 146, (3-{[5-(4-Methoxyphenyl)-6-phenylfuro[2,3-d]pyrimidin-4-yl]oxy}-1-methylbutoxy)acetic acid (Enantiomer 2)] | 0.007 µM
CCOC(=O)COC[C@@H](C)COc1ncnc2oc(-c3ccccc3F)c(-c3ccc(OC)cc3)c12 [Example 152, (−)-{[(2R)-3-{[5-(4-Methoxyphenyl)-6-(2-fluorophenyl)furo[2,3-d]pyrimidin-4-yl]oxy}-2-methyl-propyl]oxy}acetic acid ethyl ester] | 0.0037 µM
COc1ccc(-c2c(-c3ccccc3)oc3ncnc(NCCCCCc4nnn[nH]4)c23)cc1 [Example 4, 5-(4-Methoxyphenyl)-6-phenyl-N-[5-(1H-tetrazol-5-yl)pentyl]furo[2,3-d]pyrimidine-4-amine] | 0.034 µM
COc1ccc(-c2c(-c3ccccc3)oc3ncnc(NCCCOCCc4nnn[nH]4)c23)cc1 [Example 15, 5-(4-Methoxyphenyl)-6-phenyl-N-{3-[2-(1H-tetrazol-5-yl)ethoxy]propyl}furo[2,3-d]pyrimidine-4-amine] | 0.082 µM
CCc1ccc(-c2c(-c3ccccc3F)oc3ncnc(OC[C@H](C)OCCC(=O)O)c23)cc1 [Example 156, 3-[(1S)-2-{[5-(4-Ethylphenyl)-6-(2-fluorophenyl)furo[2,3-d]pyrimidin-4-yl]oxy}-1-methylethoxy]-propionic acid] | 0.013 µM
CCc1ccc(-c2c(-c3ccccc3)oc3ncnc(O[C@@H](C)COCCC(=O)O)c23)cc1 [Example 85, (+)-3-{[2-{[5-(4-Ethylphenyl)-6-phenylfuro[2,3-d]pyrimidin-4-yl]oxy}propyl]oxy}propionic acid] | 0.47 µM
COC(=O)CCCCCN(C)c1ncnc2oc(-c3ccccc3)c(-c3ccc(OC)cc3)c12 [Example 45, 6-{[5-(4-Methoxyphenyl)-6-phenylfuro[2,3-d]pyrimidin-4-yl](methyl)amino}hexanoic acid methyl ester] | 0.895 µM
CCc1ccc(-c2c(-c3ccccc3)oc3ncnc(O[C@@H](C)CN(C)CCCC(=O)O)c23)cc1 [Example 140, (+)-4-{[(2S)-2-{[5-(4-Ethylphenyl)-6-phenylfuro[2,3-d]pyrimidin-4-yl]oxy}propyl](methyl)-amino}butyric acid] | 0.052 µM
C=Cc1ccc(-c2c(-c3ccccc3)oc3ncnc(NCCCCCC(=O)O)c23)cc1 [Example 33] | 0.064 µM
COc1ccc(-c2c(-c3ccccc3)oc3ncnc(OC(C)CN(C)CCCC(=O)O)c23)cc1 (racemic) [Example 92, (+/−)-4-[(2-{[5-(4-Methoxyphenyl)-6-phenylfuro[2,3-d]pyrimidin-4-yl]oxy}propyl)(methyl)-amino]butanoic acid] | 0.219 µM
COC(=O)CCCCCNc1ncnc2oc(-c3ccccc3F)c(-c3ccc(OC)cc3)c12 [Example 113, 6-{[6-(2-Fluorophenyl)-5-(4-methoxyphenyl)furo[2,3-d]pyrimidin-4-yl]amino}hexanoic acid methyl ester] | 0.051 µM
COc1ccc(-c2c(-c3ccccc3F)oc3ncnc(O[C@@H](C)CN(C)CCCC(=O)O)c23)cc1 [Example 138, (+)-4-{[(2S)-2-{[6-(2-Fluorophenyl)-5-(4-methoxyphenyl)furo[2,3-d]pyrimidin-4-yl]oxy}propyl]-(methyl)amino}butyric acid] | 0.053 µM
COC(=O)CCCCC(C)Oc1ncnc2oc(-c3ccccc3)c(-c3ccc(OC)cc3)c12 (racemic) [Example 63, (+/−)-6-{[5-(4-Methoxyphenyl)-6-phenylfuro[2,3-d]pyrimidin-4-yl]oxy}heptanoic acid methyl ester] | 0.037 µM
COc1ccc(-c2c(-c3ccccc3)oc3ncnc(NCCCCCC(=O)O)c23)cc1 [Example 1, 6-{[5-(4-Methoxyphenyl)-6-phenylfuro[2,3-d]pyrimidin-4-yl]amino}hexanoic acid] | 0.206 µM
CCc1ccc(-c2c(-c3ccccc3)oc3ncnc(O[C@H](C)CCOCC(=O)O)c23)cc1 [Example 80, (−)-{[3-{[5-(4-Ethylphenyl)-6-phenylfuro[2,3-d]pyrimidin-4-yl]oxy}butyl]oxy}acetic acid] | 0.022 µM
COc1ccc(-c2c(-c3ccccc3)oc3ncnc(O[C@H](C)CCCCC(=O)O)c23)cc1 (single isomer, unassigned; enantiomer 2) [Example 69, (−)-6-{[5-(4-Methoxyphenyl)-6-phenylfuro[2,3-d]pyrimidin-4-yl]oxy}heptanoic acid (Enantiomer 2)] | 0.009 µM
COc1ccc(-c2c(-c3ccccc3Cl)oc3ncnc(NCCCCCC(=O)O)c23)cc1 [Example 117, 6-{[6-(2-Chlorophenyl)-5-(4-methoxyphenyl)furo[2,3-d]pyrimidin-4-yl]amino}hexanoic acid] | 0.084 µM
COc1ccc(-c2c(-c3ccccc3)oc3ncnc(OCC(C)COCC(=O)O)c23)cc1 (single isomer, unassigned; enantiomer 1) [Example 128, (+)-(3-{[5-(4-Methoxyphenyl)-6-phenylfuro[2,3-d]pyrimidin-4-yl]oxy}-2-methylpropoxy)acetic acid (Enantiomer 1)] | 0.033 µM
COc1ccc(-c2c(-c3ccccc3)oc3ncnc(OCCCCCc4nnn[nH]4)c23)cc1 [Example 14, 5-(4-Methoxyphenyl)-6-phenyl-4-{[5-(1H-tetrazol-5-yl)pentyl]oxy}-furo[2,3-d]pyrimidine] | 0.049 µM
CCc1ccc(-c2c(-c3ccccc3F)oc3ncnc(O[C@H](C)CCCCC(=O)O)c23)cc1 [Example 142, (−)-(6R)-6-{[5-(4-Ethylphenyl)-6-(2-fluorophenyl)furo[2,3-d]pyrimidin-4-yl]oxy}heptanoic acid] | 0.0025 µM
COc1ccc(-c2c(-c3ccccc3)oc3ncnc(OC[C@H](C)OCCC(=O)O)c23)cc1 [Example 83, (+)-3-{[(2S)-2-{[5-(4-Methoxyphenyl)-6-phenylfuro[2,3-d]pyrimidin-4-yl]oxy}-1-methylethoxy]-oxy}propionic acid] | 0.02 µM
